Source: patent publication US20240392241A1, “METHOD FOR PRODUCING CELL MASS INCLUDING PITUITARY TISSUE AND CELL MASS” (SUMITOMO CHEMICAL COMPANY, LIMITED, priority 2021, published 2024)

How the values were obtained:
[1] = test system: human iPS cells (HC-6 #10 strain); assay: Pituitary organoid differentiation from human iPS cells, phase contrast observation of cell mass (Example 1); assay type: cell-based; conditions: JNK—IN-8 1 μM from day 0
Method: Human iPS cells (HC-6 #10 strain, obtained from RIKEN) were cultured under feeder-free conditions according to the method described in Scientific Reports, 4, 3594 (2014). As the feeder-free medium, StemFit medium (manufactured by Ajinomoto Co., Inc.) was used and, as the feeder-free scaffold, Laminin 511-E8 (manufactured by Nippi, Inc.) was used.
As specific maintenance culturing operation, subconfluent human iPS cells (HC-6 #10 strain) were first washed twice with 0.5 mM EDTA/PBS and further treated with 5 mM EDTA/PBS at 37° C. for 10 min. After pipetting, the cells were scraped from the surface of the culture dish and dispersed into single cells. Thereafter, the human iPS cells dispersed into single cells were seeded in a plastic culture dish coated with Laminin 511-E8, and cultured under feeder-free conditions in StemFit medium in the presence of Y-27632 (ROCK inhibiting substance, manufactured by FUJIFILM Wako Pure Chemical Corporation, 10 μM). When a 6-well plate (manufactured by Corning, for cell culturing, culture area 9.5 cm^2) was used as the plastic culture dish, the number of plated cells of the human iPS cells dispersed into single cells was adjusted to 7×10^3. One day after seeding, the entire amount of the medium was changed with StemFit medium free of Y-27632. Thereafter, once in 1-2 days, the entire amount of the medium was changed with StemFit medium free of Y-27632. […]

[2] = test system: human iPS cells (201B7 strain); assay: Immunostaining of Pitx1, Lhx3 and E-cadherin in cell aggregates on day 29 (Example 3); assay type: cell-based; conditions: 1 μM from day 0
Method: In Example 3, according to step shown in FIG. 3A, a cell population including cells that constitute pituitary tissue was produced. Specifically, human iPS cells (201B7 strain, obtained from Kyoto University) were cultured under feeder-free conditions according to the method described in Scientific Reports, 4, 3594 (2014). As the feeder-free medium, StemFit medium was used and, as the feeder-free scaffold, Laminin 511-E8 was used.
The aforementioned subconfluent human iPS cells were subjected to cell dispersion treatment using TrypLE Select, and further dispersed to single cells by pipetting operation. Thereafter, the aforementioned […] dispersed into single cells were suspended in 100 μl of a serum-free medium at 9000 cells per well of a non-cell-adhesive 96-well culture plate, and suspension cultured under the conditions of 37° C., 5% CO2. […]
The aforementioned cell aggregates on the 29th day after the start of differentiation induction were each fixed with 4% para-formaldehyde, and cryosections were prepared. […] After the primary antibody reaction, detection was performed using a secondary antibody (manufactured by Life Technologies) fluorescence-labeled with Alexa488, 555, and 647. […]

Cc1cc(NC(=O)c2cccc(NC(=O)/C=C/CN(C)C)c2)ccc1Nc1nccc(-c2cccnc2)n1 [JNK—IN-8, (E)-3-(4-(dimethylamino)but-2-enamido)-N-(3-methyl-4-((4-(pyridin-3-yl)pyrimidin-2-yl)amino)phenyl)benzamide] was tested, and the “differentiation efficiency (surface covered with nonneural epithelial/placode-like tissue, unintended cells suppressed)” value ([1]; day 28, vs no addition) was “improved”, the “size of the cell mass, smaller in diameter than without addition of JNK inhibitor” value ([1]; day 28 of suspension culture) was “about 100 μm” and the “number of cells positive for Pitx1 and Lhx3 vs non-addition control” value [2] was “higher”. The “proportion of the surface of the cell mass covered with E-Cadherin-positive epithelial tissue vs non-addition control” value [2] was “higher”.
